Test results from ChEMBL document CHEMBL4190197, “Nepetaefolins A-J, Cytotoxic Chinane and Abietane Diterpenoids from Caryopteris nepetaefolia” (J Nat Prod, 2017).

How the values were obtained:
Assay type in all cases: functional
Conditions in all cases: Homo sapiens, 144 h
[1] = Antiproliferative activity against non-small cell lung cancer patient-derived LUPF045 cells after 6 days by ATP-TCA method
[2] = Antiproliferative activity against ovarian cancer patient-derived OVPF008 cells after 6 days by ATP-TCA method
[3] = Antiproliferative activity against ovarian cancer patient-derived OVPF038 cells after 6 days by ATP-TCA method
[4] = Antiproliferative activity against non-small cell lung cancer patient-derived LUPF003 cells after 6 days by ATP-TCA method

Structure (SMILES)	IC50 [1] [µM]	IC50 [2] [µM]	IC50 [3] [µM]	IC50 [4] [µM]
CC(C)[C@]12C=C3CC[C@@H]4[C@](C)(CCC[C@]4(C)C(=O)O)[C@]3(CC1)OO2	> 50	–	–	–
CC(=O)OC[C@@]1(C)[C@@H](O)CC[C@]2(C)c3ccc(C(C)C)cc3CC[C@@H]12	6.3	7.9	12.7	31.5
C=C(C)c1ccc2c(c1)CC[C@H]1C3=C(CC[C@]21C)C(=O)OC3	9	16.8	19.3	11.7
CC(C)[C@]12C=C3CC[C@H]4[C@@](C)(CO)[C@@H](O)CC[C@]4(C)[C@]3(CC1)OO2	> 50	–	–	–
CC(C)(O)c1cc2c(cc1O)[C@@]1(C)CCC3=C(COC3=O)[C@@H]1CC2	–	> 50	> 50	44.7
CC(C)[C@@]12C=C3CC[C@H]4[C@@](C)(CO)[C@@H](O)CC[C@]4(C)[C@]3(CC1)OO2	49.7	> 50	> 50	–
C=C(C)c1cc2c(cc1O)[C@@]1(C)CCC3=C(COC3=O)[C@@H]1CC2	49.6	–	> 50	43.8
CC(=O)O[C@H]1C(=O)[C@@]2(C)[C@H]([C@H](OC(=O)c3ccccc3)[C@]3(O)C[C@H](OC(=O)[C@H](O)[C@@H](NC(=O)c4ccccc4)c4ccccc4)C(C)=C1C3(C)C)[C@]1(OC(C)=O)CO[C@@H]1C[C@@H]2O [PACLITAXEL]	11.2	1.1	1.4	11
